In US9232793B2, “Methods of inhibiting microbial growth using deoxyaldohexoses” (LVMH Recherche, priority 2008, dated 2016):

Assays:
Assay in all cases: Agar diffusion antimicrobial test, MIC determination
Format in all cases: cell-based
[1] = system: Burkholdena cepacia CIP 103924; details: B. cepacia
Procedure: (§1) The culture medium at pH 6, pH 7 and pH 8, inoculated beforehand with the test strains, is poured into Petri dishes, with one pH and one strain per dish. After solidification, 100 μl are deposited for each of the concentrations of the test substance, as well as a solvent control and a positive control. After incubation, the inhibition diameter is measured after diffusion of the test product into the agar, and there is deduced therefrom the minimum bacteriostatic concentration (MIC), which is the lowest concentration of product inhibiting the multiplication of the microbes. The test strains are the following: • Aspergillus niger IP 1431.83, • Candida albicans IP 48.72, • Enterococcus hirae CIP 58.55, • Staphylococcus aureus CIP 4.83, • Burkholdena cepacia CIP 103924, • Pseudomonas aeruginosa CIP 82.1118. For each strain, 120 ml of each of the three Mueller Hinton media pH 6, pH 7 and pH 8 are inoculated with 1.2 ml of each suspension of microbe having a titre of 10^7 CFU/ml in order to obtain a titre equal to 10^5 CFU/ml. 15 ml are poured into each dish, with one dish per medium and per strain. After solidification, three steel cylinders are placed at the surface of each dish. 100 mg (approximately) of the powder consisting of the test alkyl glycoside are taken up in 1 ml of methanol (solution A at 10%). Next, the concentration range is prepared as described below: • Solution B1 at 1%: 300 μl of solution A+2.7 ml of sterile water, • Solution B2 at 0.5%: 300 μl of solution A+5.7 ml of sterile water, • Solution B3 at 0.1%: 1 ml of solution B1+9 ml of sterile water, • Solution B4 at 0.05%: 1 ml of solution B2+9 ml of sterile water. Only solutions B2, B3 and B4 are tested during the trial. 100 μl (pH 6, pH 7 and pH 8) of the following solutions are introduced into each cylinder: • Methanol control (prepared for each strain at pH 7), • Solution B4 at 0.05%, • Solution B3 at 0.1%, • Solution B2 at 0.5%. Incubation at 37° C.±1° C. for 24 hours (48 h for Enterococcus hirae). The inhibition of growth of the microbes leads to measurement, using a vernier caliper, in millimeters, of an inhibition diameter after diffusion of the test product into the agar. The minimum bacteriostatic concentration (MIC) is given by the lowest concentration of product which inhibits the multiplication of the microbes. In the case where the highest concentration ([…]) is not active, this is noted (>500). The tests were carried out on various strains at pH 7, for alkyl glycoside concentrations equal to 0.05%, 0.1% and 0.5% by weight.

[2] = system: Aspergillus niger IP 1431.83; details: A. niger
Procedure: as §1

[3] = system: Staphylococcus aureus CIP 4.83; details: S. aureus
Procedure: as §1

[4] = system: Candida albicans IP 48.72; details: C. albicans
Procedure: as §1

[5] = system: Enterococcus hirae CIP 58.55; details: E. hirae
Procedure: as §1

[6] = system: Pseudomonas aeruginosa CIP 82.1118; details: P. aeruginosa
Procedure: as §1

Row | Structure (SMILES) | MIC ([1]; pH 7) | MIC ([1]; pH 7, value in brackets) | MIC ([2]; pH 7) | MIC ([2]; pH 7, value in brackets) | MIC ([3]; pH 7) | MIC ([3]; pH 7, value in brackets) | MIC ([4]; pH 7) | MIC ([4]; pH 7, value in brackets) | MIC ([5]; pH 7) | MIC ([5]; pH 7, value in brackets) | MIC ([6]; pH 7) | MIC ([6]; pH 7, value in brackets)
1 | CCCCCCCCO[C@H]1O[C@@H](C)[C@@H](O)[C@@H](O)[C@@H]1O [Fuc-8, octyl beta-L-fucoside] | > 500 µg/mL | > 1810 µM | 50 µg/mL | 181 µM | 50 µg/mL | 181 µM | 100 µg/mL | 362 µM | 50 µg/mL | 181 µM | > 500 µg/mL | > 1810 µM
2 | CCCCCCCCCCCCO[C@H]1O[C@@H](C)[C@@H](O)[C@@H](O)[C@@H]1O [Fuc-12, dodecyl beta-L-fucoside] | > 500 µg/mL | > 1500 µM | 50 µg/mL | 150 µM | 50 µg/mL | 150 µM | > 500 µg/mL | > 1500 µM | 50 µg/mL | 150 µM | > 500 µg/mL | > 1500 µM
3 | CCCCCCCCCCCCOC1O[C@@H](C)[C@H](O)[C@@H](O)[C@H]1O (stereo partly drawn) [Rha-12, dodecyl L-rhamnoside] | 100 µg/mL | 301 µM | 50 µg/mL | 150 µM | 50 µg/mL | 150 µM | 50 µg/mL | 150 µM | 50 µg/mL | 150 µM | 50 µg/mL | 150 µM
4 | CCCCCCCCOC1O[C@@H](C)[C@H](O)[C@@H](O)[C@H]1O (stereo partly drawn) [Rha-8, octyl L-rhamnoside] | 100 µg/mL | 362 µM | 50 µg/mL | 181 µM | 50 µg/mL | 181 µM | 100 µg/mL | 362 µM | 50 µg/mL | 181 µM | 100 µg/mL | 362 µM
